Laboratory results published in PubChem BioAssay AID2060907 (Molecular Pharmacology Branch, DTP, NCI, 2025).

Tested on: 388556-164-R-J1-PDC complex spheroid viability
Test: Anticancer human tumor 388556-164-R-J1-PDC patient-derived colon adenocarcinoma cell line growth inhibition [RAS]
Conditions: for IC50: curve of first compound; for viability, T/C: stronger effect = lower value
Procedure, shortened: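 Tumour cells grown as complex spheroids with HUVEC endothelial cells and mesenchymal stem cells, treated with RAS pathway inhibitor combinations. Each agent spans half-log steps from near clinical Cmax, or 10 microM where Cmax is unknown.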

[1] = second compound 0.0316 µM, first compound 0.0316 µM
[2] = second compound 0.0316 µM, first compound 0.1 µM
[3] = second compound 0.0316 µM, first compound 0.316 µM
[4] = second compound 0.0316 µM, first compound 1 µM
[5] = second compound 0.1 µM, first compound 0.0316 µM
[6] = second compound 0.1 µM, first compound 0.1 µM
[7] = second compound 0.1 µM, first compound 0.316 µM
[8] = second compound 0.1 µM, first compound 1 µM
[9] = second compound 0.316 µM, first compound 0.0316 µM
[10] = second compound 0.316 µM, first compound 0.1 µM
[11] = second compound 0.316 µM, first compound 0.316 µM
[12] = second compound 0.316 µM, first compound 1 µM
[13] = second compound 1 µM, first compound 0.0316 µM
[14] = second compound 1 µM, first compound 0.1 µM
[15] = second compound 1 µM, first compound 0.316 µM
[16] = second compound 1 µM, first compound 1 µM
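Also: spheroids exposed to compound for 7 days before readout.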
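For viability, T/C in this document: 100% = DMSO vehicle control luminescence.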

## NC1c2ccccc2OC12CCN(c1cnc3c(N4CCCc5ncccc54)n[nH]c3n1)CC2 (centres undefined) + C#Cc1c(F)ccc2cc(O)cc(-c3ncc4c(N5CC6CCC(C5)N6)nc(OCC56CCCN5CC(F)C6)nc4c3F)c12
Second compound 0.0316 µM
  IC50: 363 nM
Second compound 0.1 µM
  IC50: 149 nM
Second compound 0.316 µM
  IC50: 157 nM
Second compound 1 µM
  IC50: 84.6 nM
Second compound 3.16 µM
  IC50: < 31.6 nM
Second compound 10 µM
  IC50: < 31.6 nM
[1]
  viability, T/C: 58.8%
[2]
  viability, T/C: 59.1%
[3]
  viability, T/C: 50.1%
[4]
  viability, T/C: 41.8%
Second compound 0.0316 µM, first compound 3.16 µM
  viability, T/C: 35.2%
Second compound 0.0316 µM, first compound 10 µM
  viability, T/C: 31.3%
[5]
  viability, T/C: 65.7%
[6]
  viability, T/C: 55.6%
[7]
  viability, T/C: 43.8%
[8]
  viability, T/C: 32.5%
Second compound 0.1 µM, first compound 3.16 µM
  viability, T/C: 36.8%
Second compound 0.1 µM, first compound 10 µM
  viability, T/C: 28.4%
[9]
  viability, T/C: 63.6%
[10]
  viability, T/C: 58.2%
[11]
  viability, T/C: 38.2%
[12]
  viability, T/C: 33%
Second compound 0.316 µM, first compound 3.16 µM
  viability, T/C: 26.6%
Second compound 0.316 µM, first compound 10 µM
  viability, T/C: 21%
[13]
  viability, T/C: 54.3%
[14]
  viability, T/C: 49.7%
[15]
  viability, T/C: 32%
[16]
  viability, T/C: 27.2%
Second compound 1 µM, first compound 3.16 µM
  viability, T/C: 27.7%
Second compound 1 µM, first compound 10 µM
  viability, T/C: 20.2%
Second compound 3.16 µM, first compound 0.0316 µM
  viability, T/C: 51.2%
Second compound 3.16 µM, first compound 0.1 µM
  viability, T/C: 35.9%
Second compound 3.16 µM, first compound 0.316 µM
  viability, T/C: 35%
Second compound 3.16 µM, first compound 1 µM
  viability, T/C: 29.3%
Second compound 3.16 µM, first compound 3.16 µM
  viability, T/C: 26.6%
Second compound 3.16 µM, first compound 10 µM
  viability, T/C: 18.8%
Second compound 10 µM, first compound 0.0316 µM
  viability, T/C: 39%
Second compound 10 µM, first compound 0.1 µM
  viability, T/C: 31%
Second compound 10 µM, first compound 0.316 µM
  viability, T/C: 24.1%
Second compound 10 µM, first compound 1 µM
  viability, T/C: 23.9%
Second compound 10 µM, first compound 3.16 µM
  viability, T/C: 18.6%
Second compound 10 µM, first compound 10 µM
  viability, T/C: 16.9%

## Nc1ccn(C2OC(CO)C(O)C2(F)F)c(=O)n1 (centres undefined) + C=CC(=O)N1CCN(c2nc(OCC3CCCN3C)nc3c(F)c(-c4nc(N)cc(C)c4C(F)(F)F)c(Cl)cc23)C(C)C1
Second compound 0.00316 µM
  IC50: > 1000 nM
Second compound 0.01 µM
  IC50: > 1000 nM
Second compound 0.0316 µM
  IC50: > 1000 nM
Second compound 0.1 µM
  IC50: > 1000 nM
Second compound 0.316 µM
  IC50: > 1000 nM
Second compound 1 µM
  IC50: > 1000 nM
Second compound 0.00316 µM, first compound 0.00316 µM
  viability, T/C: 106%
Second compound 0.00316 µM, first compound 0.01 µM
  viability, T/C: 90.6%
Second compound 0.00316 µM, first compound 0.0316 µM
  viability, T/C: 82.7%
Second compound 0.00316 µM, first compound 0.1 µM
  viability, T/C: 79.4%
Second compound 0.00316 µM, first compound 0.316 µM
  viability, T/C: 60.9%
Second compound 0.00316 µM, first compound 1 µM
  viability, T/C: 75.8%
Second compound 0.01 µM, first compound 0.00316 µM
  viability, T/C: 94.3%
Second compound 0.01 µM, first compound 0.01 µM
  viability, T/C: 89.6%
Second compound 0.01 µM, first compound 0.0316 µM
  viability, T/C: 76.3%
Second compound 0.01 µM, first compound 0.1 µM
  viability, T/C: 79.3%
Second compound 0.01 µM, first compound 0.316 µM
  viability, T/C: 70%
Second compound 0.01 µM, first compound 1 µM
  viability, T/C: 68.3%
Second compound 0.0316 µM, first compound 0.00316 µM
  viability, T/C: 104%
Second compound 0.0316 µM, first compound 0.01 µM
  viability, T/C: 87.1%
[1]
  viability, T/C: 78.2%
[2]
  viability, T/C: 71.6%
[3]
  viability, T/C: 76.9%
[4]
  viability, T/C: 68.4%
Second compound 0.1 µM, first compound 0.00316 µM
  viability, T/C: 87.4%
Second compound 0.1 µM, first compound 0.01 µM
  viability, T/C: 85.3%
[5]
  viability, T/C: 74%
[6]
  viability, T/C: 65.6%
[7]
  viability, T/C: 73.8%
[8]
  viability, T/C: 67.1%
Second compound 0.316 µM, first compound 0.00316 µM
  viability, T/C: 92.8%
Second compound 0.316 µM, first compound 0.01 µM
  viability, T/C: 95.9%
[9]
  viability, T/C: 75.5%
[10]
  viability, T/C: 74.8%
[11]
  viability, T/C: 72.1%
[12]
  viability, T/C: 67.3%
Second compound 1 µM, first compound 0.00316 µM
  viability, T/C: 97.2%
Second compound 1 µM, first compound 0.01 µM
  viability, T/C: 82.7%
[13]
  viability, T/C: 80.2%
[14]
  viability, T/C: 76.2%
[15]
  viability, T/C: 72%
[16]
  viability, T/C: 68.9%
